This passage reports IC50 results from patent US20070088069A1, “Novel imidazoles” (Warner-Lambert Company LLC, priority 2005, published 2007).

The target of assay [1] is T1, HMGCoA (3-Hydroxy-3-methylglutaryl CoA) Reductase (Rattus norvegicus, UniProt P51639).
T1 construct: from tissue; host or cells: liver microsomes of male Sprague-Dawley rats fed cholestyramine
T1 sequence (P51639 1-887): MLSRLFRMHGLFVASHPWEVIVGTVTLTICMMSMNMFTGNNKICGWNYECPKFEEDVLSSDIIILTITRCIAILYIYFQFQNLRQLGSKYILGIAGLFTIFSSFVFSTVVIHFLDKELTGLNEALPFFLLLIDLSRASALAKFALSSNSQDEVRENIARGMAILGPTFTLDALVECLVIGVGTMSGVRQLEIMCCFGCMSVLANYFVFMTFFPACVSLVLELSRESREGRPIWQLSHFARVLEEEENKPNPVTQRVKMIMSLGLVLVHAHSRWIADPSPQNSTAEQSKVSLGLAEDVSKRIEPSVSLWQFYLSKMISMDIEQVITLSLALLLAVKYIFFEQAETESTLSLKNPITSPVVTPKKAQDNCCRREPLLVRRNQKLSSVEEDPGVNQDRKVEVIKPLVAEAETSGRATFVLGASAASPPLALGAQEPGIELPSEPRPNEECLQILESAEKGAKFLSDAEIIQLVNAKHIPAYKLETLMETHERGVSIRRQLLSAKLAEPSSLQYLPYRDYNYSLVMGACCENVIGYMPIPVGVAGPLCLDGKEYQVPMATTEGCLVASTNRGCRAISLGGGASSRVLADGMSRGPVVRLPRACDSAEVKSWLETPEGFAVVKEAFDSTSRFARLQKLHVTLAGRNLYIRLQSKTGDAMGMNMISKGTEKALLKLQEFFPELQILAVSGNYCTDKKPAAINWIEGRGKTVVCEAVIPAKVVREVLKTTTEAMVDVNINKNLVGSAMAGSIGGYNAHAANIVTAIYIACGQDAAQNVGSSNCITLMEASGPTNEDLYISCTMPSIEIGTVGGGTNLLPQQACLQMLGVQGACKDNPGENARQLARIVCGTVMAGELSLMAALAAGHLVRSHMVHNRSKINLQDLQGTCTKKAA
In words: HMGCoA reductase assay with rat liver microsomes. It is filed as biochemical. As to conditions: 14C-HMGCoA, 45 min at 37° C., read-out: IC50 in the in vitro HMGCoA reductase assay. The protocol: Male Charles River Sprague-Dawley rats were fed with 2.5% cholestyramine in rat chow diets for 5 days before sacrificing. Livers were minced and homogenized in a sucrose homogenizing solution in an ice bath 10 times. Homogenates were diluted into a final volume of 200 mL, and centrifuged 15 min. with a Sorvall Centrifuge at 5° C., 10,000 rpm (12,000×G). The upper fat layer was removed and the supernatant decanted into fresh tubes. This step was repeated one more time before transferring the supernatant into ultracentrifuge tubes and centrifuged at 36,000 rpm (105,000×G) for an hour at 5° C. The resulting supernatant was discarded and the pellet was added to total of 15 mL 0.2 M KH2PO4. Pellets were homogenized gently by hand about 10 times. Samples were pooled and diluted into total of 60 mL buffer. The protein concentration of the homogenate was determined by the […] using a BCA (Bicinchoninic acid), kit from Pierce Chemical Company. 1 mL aliquots of microsomes were kept frozen in liquid nitrogen.
[3-^14C]-HMGCoA (57.0 mCi/mmol) was purchased from Amersham Biosciences, UK. […] Scintillation cocktail (Ultima-Flo-M) was added into each well and plates counted on a Trilux Microbeta Counter. The IC50 values were calculated with GraphPad software (Prism). […]

Assay [2] has as its system Sterol Biosynthesis in Rat Hepatocytes. In words: Sterol biosynthesis in rat hepatocytes (14C acetic acid into cholesterol). As to conditions: Hepatocyte, 4 hrs pre-incubation, 4 hrs 14C acetic acid labeling, read-out: IC50 in the cell assay (sterol biosynthesis in rat hepatocytes). It is filed as cell-based. As for the experimental part: Frozen rat hepatocytes purchased from XenoTech (cat# N400572) were seeded on 6-well collagen I coated plates at a density of 10^5 cells/per well. The cells were grown in DMEM, (Dulbecco's Modified Eagle Medium) (Gibco, #11054-020) containing 10% FBS (Fetal Bovine Serum) and 10 mM HEPES, (N-2-hydroxyethyl-piperazine-N^1-2-ethane sulfonic acid) (Gibco # 15630-080) for 24 hrs. The cells were pre-incubated with compounds for 4 hrs and then labeled by incubating in medium containing 1 μCi/per mL of ^14C acetic acid for an additional 4 hrs. After labeling, the cells were washed twice with 5 mM MOPS, (3-[N-morpholino]propane sulfonic acid) solution containing 150 mM NaCl and 1 mM EDTA and collected in the lysis buffer containing 10% KOH and 80% (vol.) ethanol.
In order to separate labeled cholesterol from labeled non-cholesterol lipids, the cells lysates were subject to saponification at 60° C. for 2 hrs. The lysates were then combined with 0.5 volume of H2O and 2 volumes of hexane, followed by 30 minutes of vigorous shaking. After the separation of two phases, the upper-phase solution was collected and combined with 5 volumes of scintillation cocktail. The amount of ^14C cholesterol was quantified by liquid scintillation counting. The IC50 values were calculated with GraphPad software (Prism 3.03).

For assay [3], the system named is Sterol Biosynthesis in L6 Rat Myoblast. Description: Sterol biosynthesis in L6 rat myoblast (14C acetic acid into cholesterol). It is filed as cell-based. The settings on record: 3 hours pre-incubation, 3 hours 14C acetic acid labeling. As for the experimental part:
L6 rat myoblast purchased from ATCC(CRL-1458) were grown in T-150 vented culture flasks and seeded on 12-well culture plates at a density of 60,000 cells per well. The cells were grown in DMEM, (Dulbecco's Modified Eagle Medium) (Gibco, #10567-014) containing 10% heat inactivated FBS (Fetal Bovine Serum) (Gibco # 10082-139) for 72 hours until reaching confluence. The cells were pre-incubated in media with compound and 0.2% DMSO (dimethyl sulfoxide) for 3 hours and then labeled by incubating in medium containing compound, 0.2% DMSO and 1 μCi/per mL of ^14C acetic acid for an additional 3 hours. After labeling, the cells were washed once with 1×PBS (Gibco #14190-144) then lysed overnight at 4° C. in buffer containing 10% KOH and 78% (vol.) ethanol.
Lipid ester bonds were hydrolyzed by saponification of the lysates at 60° C. for 2 hours. […] The amount of ^14C cholesterol was quantified by scintillation counting in a Trilux 1450 plate reader (Wallac). The IC50 values were calculated from % inhibitions relative to negative controls vs. compound concentration on Microsoft excel 2000 data analysis wizard using a sigmoid inhibition curve model with formula: y=Bmax(1−(x^n/K^n+x^n))+y2 Where K is the IC50 for the inhibition curve, X is inhibitor concentration, Y is the response being inhibited and Bmax+Y2 is the limiting response as X approaches zero.

In general, IC50 refers to the concentration needed to halve the response being measured. For `C[C@H](c1ccccc1)N(C)C(=O)c1nc(-c2ccc(F)cc2)n(CC[C@@H](O)C[C@@H](O)CC(=O)O)c1C1CC1` [Example 2, Sodium; (3R,5R)-7-{5-Cyclopropyl-2-(4-fluoro-phenyl)-4-[methyl-((R)-1-phenyl-ethyl)-carbamoyl]-imidazol-1-yl}-3,5-dihydroxy-heptanoate], the values for the IC50 in assay [1] and in assay [2] were 36.8 nM and 0.27 nM, respectively.

Compound `C[C@@H](NC(=O)c1nc(-c2ccc(F)cc2)n(CC[C@@H](O)C[C@@H](O)CC(=O)O)c1C1CC1)c1ccccc1` [Example 1, Sodium: (3R,5R)-7-[5-Cyclopropyl-2-(4-fluoro-phenyl)-4-((R)-1-Phenyl-ethylcarbamoyl)-imidazol-1-yl]-3,5-dihydroxy-heptanoate] registered an IC50 in assay [3] of 449 nM.
